From patent publication US10207993B2 (priority 2014, dated 2019) come the findings set out here.

Where “and” joins values, the source holds several entries; their conditions need not be identical. Equal entries are not always repeated. Where two headings read alike, the source gives them in different places.

Data set [1] concerns the target GPR109A (Homo sapiens, UniProt Q8TDS4). The format is cell-based.
For data set [2] the following is noted: Balb/C, mouse, in vivo, po, 10 mg/kg.
The test system of data set [3] is H37Rv. It counts as cell-based, M. tuberculosis.
For data set [4], the system named is JAL2287. Kind of data set: microbe, parasite or virus in culture. The format is cell-based, M. tuberculosis. To be noted: Mycobacterium tuberculosis, THP-1, 90 h.
The test system of data set [5] is MYC431. The format is cell-based, M. tuberculosis.
The test system of data set [6] is MDR-M. tb (JAL2287). More on the design: species or system M. tuberculosis. To be noted: in vivo.
The test system of data set [7] is JAL2287. The format is cell-based, M. tuberculosis.
Data set [8] in a line: in vivo. To be noted: Balb/C, mouse.
Data set [9] deals with H37Rv. Kind of data set: microbe, parasite or virus in culture. It counts as cell-based, M. tuberculosis. To be noted: for inhibition at 0.5 µM: Mycobacterium tuberculosis, H37RV, THP-1, 90 h, read-out: H37Rv % Inhibition at 500 nM.
The subject of data set [10] is MYC431. Description: microbe, parasite or virus in culture. The format is cell-based, M. tuberculosis. To be noted: Mycobacterium tuberculosis, THP-1, 90 h.
The test system of data set [11] is drug susceptible M. tb (H37Rv). Further details: species or system M. tuberculosis. To be noted: in vivo.
Data set [12] can be described thus: in vivo. To be noted: Beagle, dog.
Data set [13] has as its system H37Rv. Description: microbe, parasite or virus in culture. It counts as cell-based, M. tuberculosis. Particulars: Mycobacterium tuberculosis, THP-1, 90 h.

Sequence of GPR109A (Q8TDS4 whole entry): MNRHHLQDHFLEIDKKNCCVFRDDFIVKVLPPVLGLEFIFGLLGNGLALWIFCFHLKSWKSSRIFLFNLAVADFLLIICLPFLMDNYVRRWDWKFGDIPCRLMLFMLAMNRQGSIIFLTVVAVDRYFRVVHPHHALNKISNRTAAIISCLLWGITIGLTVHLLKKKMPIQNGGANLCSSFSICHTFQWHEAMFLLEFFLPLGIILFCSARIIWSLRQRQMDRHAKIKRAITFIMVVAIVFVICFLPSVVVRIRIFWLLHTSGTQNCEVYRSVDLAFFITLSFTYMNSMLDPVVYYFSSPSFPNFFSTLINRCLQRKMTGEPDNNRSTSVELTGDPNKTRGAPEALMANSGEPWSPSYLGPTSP

On to `CC(O)CC(=O)O` (stereo not drawn) [Compound 3HBA, 3-hydroxybutyric acid], for which, in [1], the “effect on intracellular cAMP levels” value is “reduces intracellular cAMP levels”.

By EC50 is commonly meant the midpoint of the concentration-response curve. Broadly, the bioavailability is the share of a dose that reaches the circulation, judged against a reference dose that is usually intravenous. High values mean much systemic uptake, low ones little systemic uptake. As usually defined, the AUC is concentration integrated over time. Broadly, the Cmax is the highest concentration seen after dosing. For orientation: Tmax means the time from dosing to the highest level. As usually defined, the clearance is the rate of elimination divided by the concentration. A word on the half-life: it is the time needed for the level to fall by half in the phase considered. Low values mean fast loss, high ones slow loss. Broadly, the inhibition is the share of the control response that was lost under treatment. A word on the AUC(0-t): it is the area under the concentration-time curve up to a stated or last time point. Low values mean low exposure, high ones high exposure. Turning to `CO[C@@H](C(=O)NC1CCNCC1)c1ccccc1` [Compound 1085, (R)-2-Methoxy-2-phenyl-N-(piperidin-4-yl)acetamide], in data set [2], the Cl was 2 mL/min/kg and the Vd amounted to 0.13 L/kg. In addition, the “CFU/well (1 × 10^3) After treatment with 1085” value (shortened to “CFU/well”) in data set [3] was 8.66 ± 2.51 CFU/well (1 × 10^3). The same compound had a concentration giving a half-maximal response (EC50) in data set [4] of 0.1 nM. The “CFU/well” value in data set [5] was 6.00 ± 1.00 CFU/well (1 × 10^3). Moreover, in data set [6], the “% Reduction of CFU in lung” value is 43.5% and 62.4% and 80.0%; the “% Reduction of CFU in spleen” value was 96.6% and 98.3%; the “CFU/spleen (×10^3)” value was 0.4 ×10^3 and 0.2 ×10^3. Besides, the “CFU/well” value in data set [7] is given as 6.33 ± 3.51 CFU/well (1 × 10^3). In data set [8], this compound displayed a bioavailability of 47%. In addition, in data set [8] (iv, 1 mg/kg), the AUC was determined as 1.73 µM·h, the Cmax amounted to 3.06 µM, the Tmax worked out at 0 h and the Vd turned out to be 0.22 L/kg. Further, in data set [8] (iv, 1 mg/kg), the clearance was 1.33 mL/min/kg and the half-life is 1.9 h. Moreover, in data set [8] (po, 10 mg/kg), the AUC stood at 8.17 µM·h, the peak concentration (Cmax) was found to be 11.2 µM, the Tmax stood at 0.2 h and the half-life is 2.8 h. In addition, the inhibition at 0.5 µM in data set [9] was 93%. Also, the response in [10] was half-maximal at 0.1 nM (EC50). Also, in data set [11], the “CFU/Lung (×10^5)” value is on record as 4.76 ×10^5. In data set [12], this compound displayed a bioavailability of 57%. Further, in data set [12] (iv, 0.3 mg/kg), the exposure AUC(0-t) turned out to be 3.44 µM·h, the Cmax is 2.76 µM, the Tmax is 0 h and the half-life is 3 h. In addition, in [12] (po, 3 mg/kg), the AUC(0-t) turned out to be 19.6 µM·h, the Cmax was 3.77 µM, the Tmax is 1 h and the half-life is 2.5 h. Also, the EC50 in [13] was 0.5 nM.

On to `CO[C@@H](C(=O)N1CCO[C@H](C)[C@@H]1C)c1ccccc1` [Compound 1076, (R)-1-((2R,3S)-2,3-Dimethylmorpholino)-2-methoxy-2-phenylethanone], for which the inhibition at 0.5 µM in data set [9] was determined as 50%.

With `CO[C@@H](C(=O)N1CCOC[C@@H]1C)c1ccccc1` [Compound 1074, (R)-2-Methoxy-1-((S)-3-methylmorpholino)-2-phenylethanone], the inhibition at 0.5 µM in data set [9] was 24%.

Take `O=C(Nc1cccnc1)[C@H](O)c1ccccc1` [Compound 1055, (R)-2-Hydroxy-2-phenyl-N-(pyridin-3-yl)acetamide]: the “H37Rv % Inhibition at 500 nM” value in data set [9] (0.5 µM) turned out to be 52%.

`CN1CCC[C@H](NC(=O)C(O)(c2ccccc2)c2ccccc2)C1` [Compound 1031, (S)-2-Hydroxy-N-(1-methylpiperidin-3-yl)-2,2-diphenylacetamide]: in data set [9], the inhibition at 0.5 µM is 74%.

On to `O=C(Nc1cccnc1)C(O)c1ccccc1` (stereo in doubt) [Compound 1046, (S)-2-Hydroxy-2-phenyl-N-(pyridin-3-yl)acetamide], for which the inhibition at 0.5 µM in [9] turned out to be 56%.
